Measured values: patent US11931424B2, “Combination MCL-1 inhibitors with anti-body drug conjugates” (Gilead Sciences, Inc., priority 2021, dated 2024)
Counter-ions that a name gives are not always drawn.

Key:
[1] = tested on: panel of haematalogical cancer cell lines; assay: Compound A with BTK inhibitors, 72-hour in vitro proliferation assays; type: cell-based; conditions: combination Compound A × listed BTK inhibitor, 72-hour proliferation
[2] = tested on: panel of breast cancer cell lines; assay: Compound A with targeted agents and chemotherapies, 72-hour in vitro proliferation assays; type: cell-based; conditions: 72-hour proliferation
[3] = AU565 cell line, compound A × partner
[4] = BT-20 cell line, compound A × partner
[5] = BT-549 cell line, compound A × partner
[6] = CAL-51 cell line, compound A × partner
[7] = CAL-85-1 cell line, compound A × partner
[8] = CAL-120 cell line, compound A × partner
[9] = CAL-148 cell line, compound A × partner
[10] = CAMA-1 cell line, compound A × partner
[11] = DU-4475 cell line, compound A × partner
[12] = EVSA-T cell line, compound A × partner

SMILES: CC#CC(=O)N1CCC[C@H]1c1nc(-c2ccc(C(=O)Nc3ccccn3)cc2)c2c(N)nccn12 [Acalabrutinib]
- Best CI ([1]; HBL-1 cells): 0.09
- Best CI Level ([1]; HBL-1 cells): 55
- Bliss Volume ([1]; HBL-1 cells): 4.86
- HSA volume ([1]; HBL-1 cells): 9.39
- Loewe Volume ([1]; HBL-1 cells): 9.09
- Synergy Score ([1]; HBL-1 cells): 7.28
- Best CI ([1]; OCI-Ly10 cells): 0.69
- Best CI Level ([1]; OCI-Ly10 cells): 80
- Bliss Volume ([1]; OCI-Ly10 cells): −1.82
- HSA volume ([1]; OCI-Ly10 cells): 0.62
- Loewe Volume ([1]; OCI-Ly10 cells): −0.84
- Synergy Score ([1]; OCI-Ly10 cells): 1.59
- Best CI ([1]; SU-DHL-2 cells): 0.39
- Best CI Level ([1]; SU-DHL-2 cells): 20
- Bliss Volume ([1]; SU-DHL-2 cells): 1.10
- HSA volume ([1]; SU-DHL-2 cells): 1.30
- Loewe Volume ([1]; SU-DHL-2 cells): 2.29
- Synergy Score ([1]; SU-DHL-2 cells): 1.76
- Best CI ([1]; SU-DHL-4 cells): 0.90
- Best CI Level ([1]; SU-DHL-4 cells): 80
- Bliss Volume ([1]; SU-DHL-4 cells): 0.66
- HSA volume ([1]; SU-DHL-4 cells): −3.54
- Loewe Volume ([1]; SU-DHL-4 cells): −2.10
- Synergy Score ([1]; SU-DHL-4 cells): 1.02
- Best CI ([1]; SU-DHL-8 cells): 0.79
- Best CI Level ([1]; SU-DHL-8 cells): 20
- Bliss Volume ([1]; SU-DHL-8 cells): 3.28
- HSA volume ([1]; SU-DHL-8 cells): −5.31
- Loewe Volume ([1]; SU-DHL-8 cells): −3.08
- Synergy Score ([1]; SU-DHL-8 cells): 0.52
- Best CI ([1]; TMD8 cells): 0.09
- Best CI Level ([1]; TMD8 cells): 80
- Bliss Volume ([1]; TMD8 cells): 2.07
- HSA volume ([1]; TMD8 cells): 3.89
- Loewe Volume ([1]; TMD8 cells): 2.90
- Synergy Score ([1]; TMD8 cells): 3.60
- Best CI ([1]; U-2932 cells): 0.49
- Best CI Level ([1]; U-2932 cells): 65
- Bliss Volume ([1]; U-2932 cells): 5.67
- HSA volume ([1]; U-2932 cells): 7.07
- Loewe Volume ([1]; U-2932 cells): 7.67
- Synergy Score ([1]; U-2932 cells): 4.74

SMILES: CC(=O)c1c(C)c2cnc(Nc3ccc(N4CCNCC4)cn3)nc2n(C2CCCC2)c1=O [PD-0332991]
- Best CI [2, 3]: 1.01
- Bliss Volume [2, 3]: −1.48
- HSA volume [2, 3]: −4.75
- Loewe Volume [2, 3]: −4.99
- Synergy Score [2, 3]: 1.50
- Best CI [2, 4]: 1.30
- Bliss Volume [2, 4]: −2.05
- HSA volume [2, 4]: −0.62
- Loewe Volume [2, 4]: −1.20
- Synergy Score [2, 4]: 3.95
- Best CI [2, 5]: 1.07
- Bliss Volume [2, 5]: 5.11
- HSA volume [2, 5]: 3.60
- Loewe Volume [2, 5]: 5.15
- Synergy Score [2, 5]: 3.67
- Best CI [2, 6]: 0.82
- Bliss Volume [2, 6]: −3.23
- HSA volume [2, 6]: −1.09
- Loewe Volume [2, 6]: −1.26
- Synergy Score [2, 6]: 0.38
- Best CI [2, 7]: 0.75
- Bliss Volume [2, 7]: −7.60
- HSA volume [2, 7]: −8.20
- Loewe Volume [2, 7]: −7.47
- Synergy Score [2, 7]: 0.30
- Best CI [2, 8]: 1.81
- Bliss Volume [2, 8]: −0.11
- HSA volume [2, 8]: −7.17
- Loewe Volume [2, 8]: −6.92
- Synergy Score [2, 8]: 0.11
- Best CI [2, 9]: 0.21
- Bliss Volume [2, 9]: −2.31
- HSA volume [2, 9]: −5.69
- Loewe Volume [2, 9]: −4.24
- Synergy Score [2, 9]: 0.81
- Best CI [2, 10]: 0.49
- Bliss Volume [2, 10]: −4.96
- HSA volume [2, 10]: −11.74
- Loewe Volume [2, 10]: −11.95
- Synergy Score [2, 10]: 0.99
- Best CI [2, 11]: 0.97
- Bliss Volume [2, 11]: 0.05
- HSA volume [2, 11]: −1.86
- Loewe Volume [2, 11]: −0.06
- Synergy Score [2, 11]: 0.30
- Best CI [2, 12]: 0.77
- Bliss Volume [2, 12]: −4.20
- HSA volume [2, 12]: −6.37
- Loewe Volume [2, 12]: −5.67
- Synergy Score [2, 12]: 0.21
- Best CI ([2]; HCC38, compound A × partner): 0.19
- Bliss Volume ([2]; HCC38, compound A × partner): −13.23
- HSA volume ([2]; HCC38, compound A × partner): −17.15
- Loewe Volume ([2]; HCC38, compound A × partner): −16.79
- Synergy Score ([2]; HCC38, compound A × partner): 0.01
- Best CI ([2]; HCC70, compound A × partner): 0.68
- Bliss Volume ([2]; HCC70, compound A × partner): 4.80
- HSA volume ([2]; HCC70, compound A × partner): 3.64
- Loewe Volume ([2]; HCC70, compound A × partner): 4.83
- Synergy Score ([2]; HCC70, compound A × partner): 8.66
- Best CI ([2]; HCC1143, compound A × partner): 0.75
- Bliss Volume ([2]; HCC1143, compound A × partner): −2.16
- HSA volume ([2]; HCC1143, compound A × partner): −3.77
- Loewe Volume ([2]; HCC1143, compound A × partner): −0.95
- Synergy Score ([2]; HCC1143, compound A × partner): 1.96
- Best CI ([2]; HCC1569, compound A × partner): 0.78
- Bliss Volume ([2]; HCC1569, compound A × partner): 8.10
- HSA volume ([2]; HCC1569, compound A × partner): 4.93
- Loewe Volume ([2]; HCC1569, compound A × partner): 8.19
- Synergy Score ([2]; HCC1569, compound A × partner): 5.78
- Best CI ([2]; HCC1806, compound A × partner): 0.02
- Bliss Volume ([2]; HCC1806, compound A × partner): −1.37
- HSA volume ([2]; HCC1806, compound A × partner): −4.31
- Loewe Volume ([2]; HCC1806, compound A × partner): −1.04
- Synergy Score ([2]; HCC1806, compound A × partner): 0.99
- Best CI ([2]; HCC1937, compound A × partner): 0.28
- Bliss Volume ([2]; HCC1937, compound A × partner): 14.96
- HSA volume ([2]; HCC1937, compound A × partner): 11.05
- Loewe Volume ([2]; HCC1937, compound A × partner): 14.74
- Synergy Score ([2]; HCC1937, compound A × partner): 21.45
- Best CI ([2]; HCC1954, compound A × partner): 0.47
- Bliss Volume ([2]; HCC1954, compound A × partner): −7.91
- HSA volume ([2]; HCC1954, compound A × partner): −8.72
- Loewe Volume ([2]; HCC1954, compound A × partner): −7.32
- Synergy Score ([2]; HCC1954, compound A × partner): 1.20
- Best CI ([2]; HCC2218, compound A × partner): 1.10
- Bliss Volume ([2]; HCC2218, compound A × partner): −0.96
- HSA volume ([2]; HCC2218, compound A × partner): −1.25
- Loewe Volume ([2]; HCC2218, compound A × partner): −3.22
- Synergy Score ([2]; HCC2218, compound A × partner): 7.27
- Best CI ([2]; HDQ-P1, compound A × partner): 0.36
- Bliss Volume ([2]; HDQ-P1, compound A × partner): 0.47
- HSA volume ([2]; HDQ-P1, compound A × partner): −6.53
- Loewe Volume ([2]; HDQ-P1, compound A × partner): −11.86
- Synergy Score ([2]; HDQ-P1, compound A × partner): 0.17
- Best CI ([2]; HMC-1-8, compound A × partner): 0.47
- Bliss Volume ([2]; HMC-1-8, compound A × partner): 13.91
- HSA volume ([2]; HMC-1-8, compound A × partner): 7.82
- Loewe Volume ([2]; HMC-1-8, compound A × partner): 8.09
- Synergy Score ([2]; HMC-1-8, compound A × partner): 12.76

SMILES: CC/C(=C(\c1ccccc1)c1ccc(OCCN(C)C)cc1)c1ccccc1 [Tamoxifen Citrate]
- Best CI [2, 3]: 0.63
- Best CI [2, 4]: 1.22
- Best CI ([2]; BT-474 cell line, compound A × partner): 0.67
- Best CI [2, 5]: 0.42
- Best CI [2, 6]: 1.06
- Best CI [2, 7]: 0.49
- Best CI [2, 9]: 0.69
- Best CI [2, 10]: 0.27
- Best CI [2, 11]: 0.80
- Best CI [2, 12]: 0.68
- Best CI ([2]; HCC38, compound A × partner): 0.98
- Best CI ([2]; HCC70, compound A × partner): 0.50
- Best CI ([2]; HCC1143, compound A × partner): 0.19
- Best CI ([2]; HCC1569, compound A × partner): 0.50
- Best CI ([2]; HCC1806, compound A × partner): 0.84
- Best CI ([2]; HCC1937, compound A × partner): 1.02
- Best CI ([2]; HCC1954, compound A × partner): 0.18
- Best CI ([2]; HCC2218, compound A × partner): 0.45
- Best CI ([2]; HDQ-P1, compound A × partner): 0.94
- Best CI ([2]; HMC-1-8, compound A × partner): 0.58
- Best CI ([2]; JIMT-1, compound A × partner): 0.38
- Best CI ([2]; KPL-1, compound A × partner): 0.54
- Best CI ([2]; MCF7 cells, Compound A × partner agent): 0.41
- Best CI ([2]; MDA-MB-175-VII cells, Compound A × partner agent): 0.36
- Best CI ([2]; MDA-MB-231 cells, Compound A × partner agent): 1.06
- Best CI ([2]; MDA-MB-361 cells, Compound A × partner agent): 0.48
- Best CI ([2]; MDA-MB-436 cells, Compound A × partner agent): 0.30
- Best CI ([2]; MDA-MB-453 cells, Compound A × partner agent): 0.45
- Best CI ([2]; MDA-MB-468 cells, Compound A × partner agent): 0.61
- Best CI ([2]; SK-BR-3 cells, combination of compound A with the named agent): 0.66
- Best CI ([2]; SUM159PT cells, combination of compound A with the named agent): 0.20
- Best CI ([2]; T47D cells, combination of compound A with the named agent): 0.42
- Best CI ([2]; ZR-75-1 cells, combination of compound A with the named agent): 0.99
- Best CI ([2]; ZR-75-30 cells, combination of compound A with the named agent): 1.00
